Reference: patent US20100266503A1, “Breast Cancer Methods, Medicaments and Agents” (priority 2007, published 2010)
Non-standard residues stand in square brackets, D forms with d. Residues, ends and D or L forms follow the SMILES beside them. *: point of attachment. Nle = CCCC[C@H](N)C(=O)O; Cbz = O=C(OCc1ccccc1)*

Assays:
Format in all cases: cell-based
[1] = test system: MDA-MB-231, T47-D and MCF-7 breast cancer cell lines; assay: Proliferation of breast cancer cell lines treated with GSIs for 72 h, Coulter Counter cell count; conditions: tested 10 nM to 50 μM
Experimental: Graphs illustrating the effects of three GSIs: (A) DAPT (N-[N-(3,5-Difluorophenacetyl-L-alanyl)]-S-phenylglycine t-butyl ester), (B) Compound E ((2S)-2-{[(3,5-Difluorophenyl)acetyl]amino}-N-[(3S)-1-methyl-2-oxo-5-phenyl-2,3-dihydro-1H-1,4-benzodiazepin-3-yl]propanamide) and (C) GSI1 (Z-Leu-Leu-Nle-CHO) on proliferation in three breast cancer cell lines (MDA-MB-231, T47-D and MCF-7 cells). Cells were treated with the GSIs at different concentrations for 72 hours and the number of cells counted.
FIG. 6 illustrates the effect of three GSIs, DAPT, Compound E and GSI1 on proliferation in three breast cancer cell lines, MDA-MB-231 [Oestrogen receptor (ER) negative, epidermal growth factor receptor (EGFR) and HER-2 strongly positive, increasingly metastatic T47-D-MCF-MDA], T47-D [weakly ER positive, progesterone receptor positive, strongly EGFR (HER-1, cERB-B1) positive and HER-2(c-ERB-B2) positive] and MCF-7 [highly ER positive and very weakly EGFR and HER-2 positive if at all]. The breast cancer cell lines were treated with the 3 GSIs for 72 h. 20,000 cells were seeded into 24 well plates in triplicate and allowed to adhere overnight. […] After 72 hours the media was removed and the adherent cells removed and counted on a Coulter Counter. […]

[2] = test system: MCF-7, T47D, ZR-75-1, MDA-MB-231 and Cal-51 breast cancer cell lines; assay: Sulphorhodamine B Assay (SRB) of GSI1 on breast cancer cell lines
Source text: Graphs illustrating the effects of GSI1, at different concentrations, on proliferation in five breast cancer cell lines: (A) MCF-7 cells, (B) T47D cells, (C) ZR-75-1 cells, (D) MDA-MB-231 cells and (E) Cal- 51 cells.
The effect of GSI1 on cell proliferation was investigated further in a range of breast cancer cell lines, including both oestrogen receptor positive and negative cell lines, using the Sulphorhodamine B Assay (SRB) to measure cell numbers as illustrated in FIG. 7. […] 6,000 cells were plated in 6 replicates and allowed to adhere overnight. The media was replaced the following day with media containing GSI1 at different concentrations (100 nM, 250 nM, 500 nM, 750 nM, 1 μM, 2 μM, 5 μM, and 10 μM) apart from the control which was media+dimethyl sulphoxide (the solvent for GSI1 at a concentration equal to the highest in the GSI1 treated wells). One plate of cells was subjected to the Sulphorhodamine B Assay (SRB), which […] is an accepted measure of cell numbers, on this day, day 0. Briefly, cells were fixed by adding 100 μl/well of ice-cold 40% Trichloroacetic acid to each well and leaving for 60 mins. Plates were washed 5 times in running tap water (allowing water to fill wells indirectly) and stained with 100 μl/well SRB reagent (0.4% w/v SRB [Sigma-s-9012] in 1% Acetic acid) for 30 mins. Plates were washed 5 times in 1% acetic acid and left overnight to dry before solubilizing with 100 μl/well 10 mM Tris-base. Plates were subject to shaking for 30 mins and absorbance read at 492 nm. The remaining plates were then assayed at 2-day intervals up to day 10. […] Thus, it was evident that irrespective of the cell characteristics that 1 μM and higher concentrations were an effective killing dose and doses as low as 250 nM were inhibitory to cell proliferation.

[3] = test system: GS components, Notch 1, Actin and Lamin A/C in a single breast cancer cell line; assay: Western blot of protein levels after GSI1; conditions: 750 nM GSI1 vs DMSO control
Experimental: Western blot analysis of GS components, Notch 1, Actin and Lamin A/C in response to DMSO control (1) or 750 nm GSI1 (2). Tubulin was used as a loading control.
FIG. 10 illustrates the effect of GSI1 on the protein levels of the GS components and of Notch 1, Actin and Lamin A/C in a single breast cancer cell line. Shown, are Western blots of the proteins in reponse to treatment with GSI1 (750 nM) or DMSO control. All antibodies were from Abcam unless otherwise stated. Notch1 (Mouse) 1:500, Nicastrin rabbit 1:500, Pen-2 rabbit 1:1000, Presenilin, Goat 1:200, APH-1A Rabbit, 1:500, APH-1B Rabbit, 1:1000, Actin Mouse, 1:20,000(Santa Cruz), Tubulin, Mouse, 1:1000 (Sigma), Lamin NC 1:5000 (Santa Cruz). Secondary Antibodies used were goat anti mouse horseradish peroxidase (Sigma) 1:5000, goat anti-rabbit horseradish peroxidase (Sigma 1:10000) and donkey anti-goat horseradish peroxidase (Sigma 1:5000). Although GSI1 had some effects on protein expression these were marginal apart from Notch 1.

[4] = test system: CD44 in ZR75-1 and MCF10A cells; assay: CD44 immunofluorescence staining after GSI1; conditions: GSI1 750 nM
Source text: Stained sections of the breast cancer cell line ZR75-1 (A-D) and the normal cell line (E-H) showing effect of GSI1 on CD44 concentration. Upper sections (A, B, E and F) show cells treated with GSI1. Lower sections (C, D, G and H) show untreated cells. Sections were stained with an anti CD44 primary antibody and a fluorescently labeled secondary antibody to detect CD44. Nuclei were counterstained with DAPI, as shown in panels A, C, E and G.
In order to understand the mechanism of how GS inhibition by GSI1 leads to cell death, we investigated the effect of GS inhibition on CD44 expression which is a substrate for GS and is a cell adhesion molecule. […] The effect of GSI1 on CD44 expression was investigated in one cancer, ZR75-1, and one normal, MCF10A, cell line±GSI1 (at 750 nM i.e. inhibitory dose) (FIG. 9). We used an anti CD44 primary antibody and a fluorescently labelled secondary antibody to detect the CD44. Specifically, the CD44 antibody was a FITC conjugated antibody (BD Biosciences) that was used at a 1:40 dilution. The antibody was incubated for 60 mins at room temperature after fixing in formalin. Nuclei were counterstained with DAPI. […] Thus the inhibitor was not causing the cells to become detached from the plates and die.

## CCCC[C@@H](C=O)NC(=O)[C@H](CC(C)C)NC(=O)[C@H](CC(C)C)NC(=O)OCc1ccccc1 [GSI1, Z-Leu-Leu-Nle-CHO] (Cbz-Leu-Leu-[Nle]-aldehyde)
[1]
  concentration that virtually eliminates all the cells: 1 µM
[2]; 1 μM, each cell line, assayed up to day 10
  effect of the 1 μM treatment on cell numbers: greatly reduced cell numbers
[2]; irrespective of cell characteristics, up to day 10
  effective killing dose: ≥ 1 µM
[2]; summary statement
  concentration effective at killing / lethal to breast cancer cell lines: 1 µM
[2]; up to day 10
  lowest dose inhibitory to cell proliferation: 250 nM
[3]
  Notch 1 protein expression: markedly upregulated
  protein expression other than Notch 1 (GS components, Actin, Lamin A/C): only marginal effects on protein expression
[4]
  CD44 expression: up-regulation of CD44
